In patent publication US9453014B2, “Cyclic amide derivatives as inhibitors of 11-β-hydroxysteroid dehydrogenase and uses thereof” (CONNEXIOS LIFE SCIENCES PVT. LTD., priority 2011, dated 2016):
Like-named read-outs stand apart in the source and are kept apart here.

Target: T1, human full length HSD11 β 1 (Homo sapiens, UniProt P28845)
T1 construct: transient expression of human full length HSD11 β 1 expression vector; host or cells: CHO cells (transient transfection)
Assay: In Vitro HSD11β1 Inhibition Assay
Type: cell-based
Experimental: In Vitro HSD11β1 Inhibition Assay:
CHO cells were maintained in Dulbecco's modified Eagle's medium/nutrient mixture F-12 containing 5% fetal bovine serum (v/v) and 2 mM glutamine. Cells were cultured at 37° C. with 5% CO2. For transient expression of human full length HSD11 β 1 expression vector (OriGene Technologies), cells were seeded at a density of 2×10^5 cells/well in a 6-well plate. Transfection was done using Turbofectin8 reagent (OriGene Technologies), according to the protocol provided with the reagent. After 24 hours post-transfection, cells were trypsinized and pooled together before they were re-seeding to 96-well plate at a density of 40000 cells/well. 24 hours after re-seeding, cells were incubated with 200 nM cortisone+500 uM NADPH (or along with small molecule inhibitors) overnight. The enzymatic activity or inhibition of enzyme activity was measured by estimating the conversion of cortisone to cortisol by LC/MS-MS method. The IC50 in nM was calculated from an 8 point log scale of concentration versus inhibition.

[1] = CHO cells transiently expressing human HSD11β1, 200 nM cortisone+500 uM NADPH overnight, cortisone to cortisol by LC/MS-MS, read-out: 11βHSD1 (IC50)

T1 sequence (P28845 whole entry): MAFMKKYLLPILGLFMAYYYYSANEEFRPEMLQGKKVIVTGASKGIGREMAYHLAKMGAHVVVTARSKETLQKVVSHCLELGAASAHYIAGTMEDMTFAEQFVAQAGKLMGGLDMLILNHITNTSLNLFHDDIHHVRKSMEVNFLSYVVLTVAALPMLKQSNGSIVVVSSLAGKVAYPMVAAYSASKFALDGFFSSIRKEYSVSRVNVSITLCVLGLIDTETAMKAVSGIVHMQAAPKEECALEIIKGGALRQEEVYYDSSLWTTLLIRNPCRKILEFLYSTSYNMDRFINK

SMILES | IC50 [1] [nM] | IC50 (11βHSD1 (IC50)) [nM]
O=C(O)C1CCN(C(=O)CC(c2ccccc2)c2c[nH]c3cc(F)ccc23)C2CCCCC12 (single isomer, unassigned) [Example 160, 1-[3-(6-fluoro-1H-indol-3-yl)-3-phenylpropanoyl]decahydroquinoline-4-carboxylic acid] | > 250 | 
O=C(O)C1CCN(C(=O)CC(c2ccccc2)c2c[nH]c3cccc(F)c23)C2CCCCC12 (single isomer, unassigned) [Example 162, 1-[3-(4-fluoro-1H-indol-3-yl)-3-phenylpropanoyl]decahydroquinoline-4-carboxylic acid] | > 250 | 
CC(C)C(CC(=O)N1CCC(C(=O)O)C2CCCCC21)c1c[nH]c2cc(F)ccc12 (single isomer, unassigned) [Example 178, 1-[3-(6-fluoro-1H-indol-3-yl)-4-methylpentanoyl]decahydroquinoline-4-carboxylic acid] | > 250 | 
O=C(O)C1CCN(C(=O)CC(c2ccccc2)n2nnc3ccccc32)C2CCCCC12 (single isomer, unassigned) [Example 181, 1-[3-(1H-benzotriazol-1-yl)-3-phenylpropanoyl]decahydroquinoline-4-carboxylic acid] | > 250 | 
O=C(O)C1CCN(C(=O)CC(c2ccccc2)n2nnc3ccccc32)C2CCCCC12 (single isomer, unassigned) [Example 182, 1-[3-(1H-benzotriazol-1-yl)-3-phenylpropanoyl]decahydroquinoline-4-carboxylic acid] | > 250 | 
Cn1cc(C(C)(C)C(=O)N2CCCC3CCCCC32)c2ccccc21 (centres unmarked) [Compound 2, 2-methyl-2-(1-methyl-1H-indol-3-yl)-1-(octahydroquinolin-1(2H)-yl)propan-1-one] | > 250 | 
O=C(CCc1c[nH]c2ccc(Cl)cc12)N1CCCC2CCCCC21 (centres unmarked) [Compound 6, 3-(5-chloro-1H-indol-3-yl)-1-(octahydroquinolin-1(2H)-yl)propan-1-one] | 200 to 250 | 
COc1ccc2[nH]cc(CCC(=O)N3CCCC4CCCCC43)c2c1 (centres unmarked) [Compound 7, 3-(5-methoxy-1 fi-indol-3-yl)-1-(octahydroquinolin-1 (2H)-yl)propan-1-one] | > 250 | 
O=C(Cc1c[nH]c2ccccc12)N1CCCC2CCCCC21 (centres unmarked) [Compound 9, 2-(1H-indol-3-yl)-1-(octahydroquinolin-1(2H)-yl)ethanone] | 200 to 250 | 
CC1CCN(C(=O)CCc2c[nH]c3ccccc23)C2CCCCC12 (centres unmarked) [Compound 12, 3-(1H-indol-3-yl)-1-(4-methyloctahydroquinolin-1(2H)-yl)propan-1-one] | > 250 | 
O=C(CCc1cc2ccccc2[nH]1)N1CCCC2CCCCC21 (centres unmarked) [Compound 14, 3-(1H-indol-2-yl)-1-(octahydroquinolin-1(2H)-yl)propan-1-one] | > 250 | 
Cc1[nH]c2ccc(F)cc2c1CCC(=O)N1CCCC2CCCCC21 (centres unmarked) [Compound 16, 3-(5-fluoro-2-methyl-1H-indol-3-yl)-1-(octahydroquinolin-1(2H)-yl)propan-1-one] | 150 to 200 | 
O=C(CCn1ccc2ccccc21)N1CCCC2CCCCC21 (centres unmarked) [Compound 18, 3-(1H-indol-1-yl)-1-(octahydroquinolin-1(2H)-yl)propan-1-one] | > 250 | 
O=C(CC(=O)N1CCCC2CCCCC21)c1c[nH]c2ccc(Cl)cc12 (centres unmarked) [Compound 19, 1-(5-chloro-1H-indol-3-yl)-3-(octahydroquinolin-1(2H)-yl)propane-1,3-dione] | > 250 | 
O=C(CCc1c[nH]c2ccccc12)N1CCC2CCCCC2C1 (centres unmarked) [Compound 21, 3-(1H-indol-3-yl)-1-(octahydroisoquinolin-2(1H)-yl)propan-1-one] | > 250 | 
CC(CC(=O)N1CCOC2CCCCC21)c1c[nH]c2ncccc12 (centres unmarked) [Compound 22, 1-(octahydro-4H-1,4-benzoxazin-4-yl)-3-(1H-pyrrolo[2,3-b]pyridin-3-yl)butan-1-one] | > 250 | 
CC(C)(C)NC(=O)C1CC2CCCCC2CN1C(=O)CCc1c[nH]c2ccccc12 (centres unmarked) [Compound 23, N-tert-butyl-2-[3-(1H-indol-3-yl)propanoyl]decahydroisoquinoline-3-carboxamide] | > 250 | 
Cn1cc(CCC(=O)N2CCCC3CCCCC32)c2cc(O)ccc21 (centres unmarked) [Compound 24, 3-(5-hydroxy-1-methyl-1H-indol-3-yl)-1-(octahydroquinolin-1(2H)-yl)propan-1-one] | > 250 | 
CC(Oc1c[nH]c2ccccc12)C(=O)N1CCCC2CCCCC21 (centres unmarked) [Compound 25, 2-(1H-indol-3-yloxy)-1-(octahydroquinolin-1(2H)-yl)propan-1-one] | > 250 | 
O=C1CCN(C(=O)CCc2c[nH]c3ccccc23)C2CCCCC12 (centres unmarked) [Compound 26, 1-[3-(1H-indol-3-yl)propanoyl]octahydroquinolin-4(1H)-one] | > 250 | 
Cc1cccc2[nH]cc(C(=O)CC(=O)N3CCCC4CCCCC43)c12 (centres unmarked) [Compound 30, 1-(4-methyl-1H-indol-3-yl)-3-(octahydroquinolin-1(2H)-yl)propane-1,3-dione] |  | > 250
N#C/C(=C\c1c[nH]c2ccccc12)C(=O)N1CCCC2CCCCC21 (centres unmarked) [Compound 31, (2E)-3-(1H-indol-3-yl)-2-(octahydroquinolin-1(2H)-ylcarbonyl)prop-2-enenitrile] | > 250 | 
Cc1cccc2[nH]cc(CCC(=O)N3CCC(=O)C4CCCCC43)c12 (centres unmarked) [Compound 32, 1-[3-(4-methyl-1H-indol-3-yl)propanoyl]octahydroquinolin-4(1H)-one] | > 250 | 
CCn1cc(CCC(=O)N2CCCC3CCCCC32)c2c(C)cccc21 (centres unmarked) [Compound 33, 3-(1-ethyl-4-methyl-1H-indol-3-yl)-1-(octahydroquinolin-1(2H)-yl)propan-1-one] | > 250 | 
CC1(O)CCN(C(=O)CCc2c[nH]c3ccccc23)C2CCCCC21 (centres unmarked) [Compound 34, 1-(4-hydroxy-4-methyloctahydroquinolin-1(2H)-yl)-3-(1H-indol-3-yl)propan-1-one] | > 250 | 

Second part, led by results:

IC50 [1] [nM] | SMILES | IC50 (11βHSD1 (IC50)) [nM]
< 100 | O=C(O)C1CCN(C(=O)CC(c2ccccc2)c2c[nH]c3cccc(F)c23)C2CCCCC12 (single isomer, unassigned) [Example 161, 1-[3-(4-fluoro-1H-indol-3-yl)-3-phenylpropanoyl]decahydroquinoline-4-carboxylic acid] | 
150 to 200 | CC(C)C(CC(=O)N1CCC(C(=O)O)C2CCCCC21)c1c[nH]c2cc(F)ccc12 (single isomer, unassigned) [Example 177, 1-[3-(6-fluoro-1H-indol-3-yl)-4-methylpentanoyl]decahydroquinoline-4-carboxylic acid] | 
< 100 | CC(CC(=O)N1CCCC2CCCCC21)c1c[nH]c2ccccc12 (centres unmarked) [Compound 1, 3-(1H-indol-3-yl)-1-(octahydroquinolin-1(2H)-yl)butan-1-one] | 
150 to 200 | Cc1ccc2[nH]cc(CCC(=O)N3CCCC4CCCCC43)c2c1 (centres unmarked) [Compound 3, 3-(5-methyl-1H-indol-3-yl)-1-(octahydroquinolin-1(2H)-yl)propan-1-one] | 
100 to 150 | O=C(CCc1c[nH]c2ccc(F)cc12)N1CCCC2CCCCC21 (centres unmarked) [Compound 4, 3-(5-fluoro-1H-indol-3-yl)-1-(octahydroquinolin-1(2H)-yl)propan-1-one] | 
< 100 | O=C(CSc1c[nH]c2ccccc12)N1CCCC2CCCCC21 (centres unmarked) [Compound 5, 2-(1H-indol-3-ylsulfanyl)-1-(octahydroquinolin-1(2H)-yl)ethanone] | 
100 to 150 | O=C(/C=C/c1c[nH]c2ccccc12)N1CCCC2CCCCC21 (centres unmarked) [Compound 8, (2E)-3-(1H-indol-3-yl)-1-(octahydroquinolin-1(2H)-yl)prop-2-en-1-one] | 
100 to 150 | O=C(Cc1c[nH]c2ccc(F)cc12)N1CCCC2CCCCC21 (centres unmarked) [Compound 10, 2-(5-fluoro-1H-indol-3-yl)-1-(octahydroquinolin-1(2H)-yl)ethanone] | 
100 to 150 | O=C(CCCc1c[nH]c2ccccc12)N1CCCC2CCCCC21 (centres unmarked) [Compound 11, 4-(1H-indol-3-yl)-1-(octahydroquinolin-1(2H)-yl)butan-1-one] | 
< 100 | Cn1cc(CCC(=O)N2CCCC3CCCCC32)c2ccccc21 (centres unmarked) [Compound 13, 3-(1-methyl-1H-indol-3-yl)-1-(octahydroquinolin-1(2H)-yl)propan-1-one] | 
100 to 150 | O=C(CCc1c[nH]c2ccc(O)cc12)N1CCCC2CCCCC21 (centres unmarked) [Compound 15, 3-(5-hydroxy-1H-indol-3-yl)-1-(octahydroquinolin-1(2H)-yl)propan-1-one] | 
< 100 | Cc1[nH]c2ccccc2c1CCC(=O)N1CCCC2CCCCC21 (centres unmarked) [Compound 17, 3-(2-methyl-1H-indol-3-yl)-1-(octahydroquinolin-1(2H)-yl)propan-1-one] | 
< 100 | Cc1cccc2[nH]cc(CCC(=O)N3CCCC4CCCCC43)c12 (centres unmarked) [Compound 20, 3-(4-methyl-1H-indol-3-yl)-1-(octahydroquinolin-1(2H)-yl)propan-1-one] | 
< 100 | Cc1cccc2c1c(CCC(=O)N1CCCC3CCCCC31)cn2C (centres unmarked) [Compound 27, 3-(1,4-dimethyl-1H-indol-3-yl)-1-(octahydroquinolin-1(2H)-yl)propan-1-one] | 
100 to 150 | Cc1cccc2c1c(CCC(=O)N1CCCC3CCCCC31)cn2C1CC1 (centres unmarked) [Compound 28, 3-(1-cyclopropyl-4-methyl-1H-indol-3-yl)-1-(octahydroquinolin-1(2H) -yl)propan-1-one] | 
< 100 | Cc1cccc2[nH]cc(CCC(=O)N3C(C)CCC4CCCCC43)c12 (centres unmarked) [Compound 35, 3-(4-methyl-1H-indol-3-yl)-1-(2-methyloctahydroquinolin-1(2H)-yl)propan-1-one] | 
